Source: US11396664B2, “Replicative transposon system” (Max-Delbrück-Centrum für Molekulare Medizin in der …, priority 2016, dated 2022)

Test system: Helraiser transposase, wild type (WT), SEQ ID NO: 1, consensus Helibat1 Helitron transposase from the bat Myotis lucifugus
Experiment: Colorimetric ATPase assay (ATP hydrolysis, malachite green)
Assay type: biochemical
Conditions: purified transposase; 50 mM HEPES pH 7.5, 100 mM NaCl, 1 mM DTT, 2 mM MgCl2, 37° C; ATP 0.0078 to 1 mM
Protocol: Protein Expression and Purification
Point mutations were made using the QuikChange site-directed mutagenesis method (Agilent). Baculovirus production and protein expression were performed by the Protein Expression Laboratory at the National Cancer Institute as follows:
Cell pellets were resuspended in Nickel affinity column binding buffer (20 mM NaH2PO4 pH 7.4, 500 mM NaCl, 50 mM imidazole, 1 mM TCEP). All subsequent steps were performed at 4° C. Lysis was done by incubating the cells on ice for 30 minutes, then sonication with a Misonix Sonicator 3000 (5×20-sec pulses with 3 minute pause at 82 Watts). […]
ATP hydrolysis was analyzed by measuring the formation of free phosphate (Pi) as a function of time using procedures adapted from Baykov et al. (Baykov A A, Evtushenko O A, Avaeva S M. A malachite green procedure for orthophosphate determination and its use in alkaline phosphatase-based enzyme immunoassay. Anal Biochem 171, 266-270 (1988)). […] An aliquot (150 μl) of a 1 mM malachite green stock solution was added to each well, and the absorbance at 650 nm was measured using a Molecular Devices Spectramax M5 microplate reader. The amount of phosphate released was calculated by comparison to a standard curve generated using KH2PO4. […]

Nc1ncnc2c1ncn2[C@@H]1O[C@H](COP(=O)(O)OP(=O)(O)OP(=O)(O)O)[C@@H](O)[C@H]1O [ATP]
Km: 46 µM | kcat (ATP hydrolysis): 6.8 ± 0.11 s⁻¹
